Source: ChEMBL document CHEMBL2321712 (ACS Med Chem Lett, 2013)
pIC50: −log10 of the molar value. The source made the active and inactive calls. The rule behind the calls is not given here.

How the values were obtained:
[1] = target: Cyclin-dependent kinase 4 (Homo sapiens, UniProt P11802); test: Inhibition of CDK4 (unknown origin); format: single protein
[2] = target: Fibroblast growth factor receptor 1 (Homo sapiens, UniProt P11362); test: Inhibition of FGFR1 (unknown origin); format: single protein
Sequence of Fibroblast growth factor receptor 1 (P11362 whole entry): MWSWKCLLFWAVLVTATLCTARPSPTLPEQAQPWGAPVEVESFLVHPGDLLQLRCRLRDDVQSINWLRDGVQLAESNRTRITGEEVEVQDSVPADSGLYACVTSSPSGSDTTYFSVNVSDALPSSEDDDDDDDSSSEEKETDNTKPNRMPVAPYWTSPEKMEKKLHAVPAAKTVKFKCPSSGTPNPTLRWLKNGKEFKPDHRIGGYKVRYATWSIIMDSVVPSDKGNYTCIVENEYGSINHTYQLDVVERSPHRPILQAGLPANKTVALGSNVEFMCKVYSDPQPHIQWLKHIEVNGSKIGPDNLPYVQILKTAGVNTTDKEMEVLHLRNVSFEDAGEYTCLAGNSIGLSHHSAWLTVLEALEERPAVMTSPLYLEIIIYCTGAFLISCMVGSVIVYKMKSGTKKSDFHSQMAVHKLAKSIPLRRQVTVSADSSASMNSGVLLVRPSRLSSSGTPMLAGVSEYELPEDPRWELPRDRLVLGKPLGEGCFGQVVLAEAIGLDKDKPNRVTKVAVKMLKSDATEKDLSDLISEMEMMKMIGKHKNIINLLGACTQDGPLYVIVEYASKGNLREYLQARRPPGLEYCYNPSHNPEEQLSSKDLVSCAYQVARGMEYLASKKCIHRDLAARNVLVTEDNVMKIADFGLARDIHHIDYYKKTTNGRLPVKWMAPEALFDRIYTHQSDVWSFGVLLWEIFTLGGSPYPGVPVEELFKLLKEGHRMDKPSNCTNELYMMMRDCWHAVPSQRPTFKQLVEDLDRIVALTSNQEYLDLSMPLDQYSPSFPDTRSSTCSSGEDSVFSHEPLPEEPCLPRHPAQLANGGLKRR

[3] = target: Cyclin-dependent kinase 2 (Homo sapiens, UniProt P24941); test: Inhibition of CDK2 (unknown origin); format: single protein
[4] = target: Vascular endothelial growth factor receptor 2 (Homo sapiens, UniProt P35968); test: Inhibition of KDR (unknown origin); format: single protein
Sequence of Vascular endothelial growth factor receptor 2 (P35968 whole entry): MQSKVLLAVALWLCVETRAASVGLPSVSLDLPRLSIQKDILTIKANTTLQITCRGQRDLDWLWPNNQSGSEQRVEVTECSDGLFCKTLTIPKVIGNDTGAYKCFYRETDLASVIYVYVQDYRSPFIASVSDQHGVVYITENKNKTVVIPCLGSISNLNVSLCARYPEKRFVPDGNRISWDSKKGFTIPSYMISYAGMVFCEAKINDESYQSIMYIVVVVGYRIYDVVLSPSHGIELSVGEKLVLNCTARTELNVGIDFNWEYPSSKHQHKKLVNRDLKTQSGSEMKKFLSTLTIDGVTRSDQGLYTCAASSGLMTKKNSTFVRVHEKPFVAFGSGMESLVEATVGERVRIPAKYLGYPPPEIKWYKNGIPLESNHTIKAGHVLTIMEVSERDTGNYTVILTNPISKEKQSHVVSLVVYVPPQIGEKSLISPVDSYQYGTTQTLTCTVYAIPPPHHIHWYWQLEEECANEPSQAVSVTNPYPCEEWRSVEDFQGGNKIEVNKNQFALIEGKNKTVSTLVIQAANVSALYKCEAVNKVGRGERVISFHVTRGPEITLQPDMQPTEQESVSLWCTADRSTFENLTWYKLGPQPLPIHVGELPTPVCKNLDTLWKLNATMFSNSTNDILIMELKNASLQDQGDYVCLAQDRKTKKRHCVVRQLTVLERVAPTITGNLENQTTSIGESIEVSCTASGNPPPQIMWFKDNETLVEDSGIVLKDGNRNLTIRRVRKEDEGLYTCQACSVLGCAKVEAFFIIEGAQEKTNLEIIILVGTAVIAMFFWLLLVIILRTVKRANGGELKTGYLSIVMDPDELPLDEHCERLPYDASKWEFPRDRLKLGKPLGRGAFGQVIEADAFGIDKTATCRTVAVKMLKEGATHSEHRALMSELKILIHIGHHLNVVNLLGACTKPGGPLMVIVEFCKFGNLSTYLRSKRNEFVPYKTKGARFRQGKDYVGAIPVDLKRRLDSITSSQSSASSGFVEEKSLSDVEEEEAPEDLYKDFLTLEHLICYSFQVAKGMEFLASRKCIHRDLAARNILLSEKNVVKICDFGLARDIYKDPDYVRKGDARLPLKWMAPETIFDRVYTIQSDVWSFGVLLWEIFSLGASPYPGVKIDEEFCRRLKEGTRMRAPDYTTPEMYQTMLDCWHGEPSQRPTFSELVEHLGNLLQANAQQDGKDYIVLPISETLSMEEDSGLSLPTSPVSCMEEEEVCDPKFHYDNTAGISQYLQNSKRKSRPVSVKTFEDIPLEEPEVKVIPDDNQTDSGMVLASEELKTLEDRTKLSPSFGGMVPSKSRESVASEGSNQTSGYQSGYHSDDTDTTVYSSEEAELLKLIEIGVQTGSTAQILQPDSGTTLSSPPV

[5] = Terminal half life in mouse at 5 mg/kg, iv; format: ADME, organism-based; design: dose 5 mg/kg, route intravenous; details: in vivo, read-out: beta t1/2 (converted)
[6] = Total clearance in mouse at 5 mg/kg, iv; format: ADME, organism-based; design: dose 5 mg/kg, route intravenous; details: in vivo
[7] = system: HUVEC; test: Antiangiogenic activity in HUVEC assessed as inhibition of PDGF-induced cell proliferation; format: functional, cell-based; details: Homo sapiens
[8] = Antiproliferative activity against human melanoma cells by MTT assay; format: functional, cell-based; details: Melanoma cell
[9] = Antiproliferative activity against human oral epidermoid cancer cells by MTT assay; format: functional, cell-based; details: Cancer cell lines
[10] = Antiproliferative activity against human prostate cancer cells by MTT assay; format: functional, cell-based; details: Cancer cell lines
[11] = Antiproliferative activity against human lung cancer cells by MTT assay; format: functional, cell-based; details: Cancer cell lines
[12] = Antiproliferative activity against human breast cancer cells by MTT assay; format: functional, cell-based; details: Cancer cell lines
[13] = Antiproliferative activity against human colon cancer cells by MTT assay; format: functional, cell-based; details: Cancer cell lines
[14] = target: T1, Aurora kinase A (Homo sapiens, UniProt O14965); test: Inhibition of aurora-A (unknown origin)
T1 sequence (O14965 whole entry): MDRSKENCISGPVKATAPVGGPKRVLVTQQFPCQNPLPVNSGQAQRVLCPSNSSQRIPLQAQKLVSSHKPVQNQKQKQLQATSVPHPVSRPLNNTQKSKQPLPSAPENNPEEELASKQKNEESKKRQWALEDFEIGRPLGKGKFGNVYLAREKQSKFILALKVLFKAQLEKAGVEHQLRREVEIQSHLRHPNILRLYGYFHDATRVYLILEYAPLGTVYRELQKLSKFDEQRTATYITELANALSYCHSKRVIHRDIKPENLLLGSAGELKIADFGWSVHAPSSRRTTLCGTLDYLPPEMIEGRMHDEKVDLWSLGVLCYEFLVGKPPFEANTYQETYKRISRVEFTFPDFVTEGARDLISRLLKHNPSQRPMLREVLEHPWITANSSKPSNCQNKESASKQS

[15] = system: HUVEC; test: Antiangiogenic activity in HUVEC assessed as inhibition of VEGF-induced cell proliferation; format: functional, cell-based; details: Homo sapiens
[16] = system: HUVEC; test: Antiangiogenic activity in HUVEC assessed as inhibition of bFGF-induced cell proliferation; format: functional, cell-based; details: Homo sapiens
[17] = system: A549; test: Antitumor activity against human A549 cells xenografted in mouse assessed as increase in mouse survival at 25 to 50 mg/kg, po qd up to 32 days; format: functional; details: dose mg/kg 25-50
[18] = system: HCT-116; test: Antitumor activity against human HCT116 cells xenografted in mouse assessed as increase in mouse survival at 25 to 50 mg/kg, po qd up to 32 days; format: functional; details: dose mg/kg 25-50
[19] = system: LoVo; test: Antitumor activity against human LoVo cells xenografted in mouse assessed as increase in mouse survival at 25 to 50 mg/kg, po qd up to 32 days; format: functional; details: dose mg/kg 25-50
[20] = system: MDA-MB-231; test: Antitumor activity against human MDA-MB-231 cells xenografted in mouse assessed as increase in mouse survival at 25 to 50 mg/kg, po qd up to 32 days; format: functional; details: dose mg/kg 25-50
[21] = system: Mus musculus; test: Toxicity in human A549 cells xenografted mouse assessed as changes in body weight and gross observation at 25 to 50 mg/kg, po qd up to 32 days; format: organism-based; design: dose 25-50 mg/kg, route oral; details: in vivo, 768 h
[22] = system: Mus musculus; test: Toxicity in human HCT116 cells xenografted mouse assessed as changes in body weight and gross observation at 25 to 50 mg/kg, po qd up to 32 days; format: organism-based, HCT-116; design: dose 25-50 mg/kg, route oral; details: in vivo, 768 h
[23] = system: Mus musculus; test: Toxicity in human LoVo cells xenografted mouse assessed as changes in body weight and gross observation at 25 to 50 mg/kg, po qd up to 32 days; format: organism-based; design: dose 25-50 mg/kg, route oral; details: in vivo, 768 h
[24] = system: Mus musculus; test: Toxicity in human MDA-MB-231 cells xenografted mouse assessed as changes in body weight and gross observation at 25 to 50 mg/kg, po qd up to 32 days; format: organism-based; design: dose 25-50 mg/kg, route oral; details: in vivo, 768 h
[25] = system: A549; test: Antitumor activity against human A549 cells xenografted in mouse assessed as tumor growth inhibition at 1.56 mg/kg, po qd up to 32 days; format: functional, organism-based; design: dose 1.56 mg/kg
[26] = system: HCT-116; test: Antitumor activity against human HCT116 cells xenografted in mouse assessed as tumor growth inhibition at 1.56 mg/kg, po qd up to 32 days; format: functional, organism-based; design: dose 1.56 mg/kg
[27] = system: MDA-MB-231; test: Antitumor activity against human MDA-MB-231 cells xenografted in mouse assessed as tumor regression at 25 mg/kg, po qd up to 32 days; format: functional, organism-based; design: dose 25 mg/kg
[28] = system: MDA-MB-231; test: Antitumor activity against human MDA-MB-231 cells xenografted in mouse assessed as tumor regression at 50 mg/kg, po qd up to 32 days; format: functional, organism-based; design: dose 50 mg/kg
[29] = system: MDA-MB-231; test: Antitumor activity against human MDA-MB-231 cells xenografted in mouse assessed as tumor growth inhibition at 50 mg/kg, po qd up to 32 days; format: functional, organism-based; design: dose 50 mg/kg
[30] = Oral bioavailability in monkey at 10 mg/kg; format: ADME, organism-based, Macaca mulatta; details: rhesus monkey, in vivo
[31] = Cmax in monkey at 10 mg/kg, po; format: ADME, organism-based, Macaca mulatta; design: dose 10 mg/kg, route oral; details: rhesus monkey, in vivo
[32] = AUC (0 to 24 hrs) in monkey at 10 mg/kg, po; format: ADME, organism-based, Macaca mulatta; design: time < 24 hr, dose 10 mg/kg, route oral; details: rhesus monkey, plasma
[33] = Tmax in monkey at 10 mg/kg, po; format: ADME, organism-based, Macaca mulatta; design: dose 10 mg/kg, route oral; details: rhesus monkey, in vivo
[34] = Oral bioavailability in rat at 50 mg/kg; format: ADME, organism-based; details: in vivo
[35] = Cmax in rat at 50 mg/kg, po; format: ADME, organism-based; design: dose 50 mg/kg, route oral; details: in vivo
[36] = AUC (0 to 24 hrs) in rat at 50 mg/kg, po; format: ADME, organism-based; design: time < 24 hr, dose 50 mg/kg, route oral; details: plasma
[37] = Tmax in rat at 50 mg/kg, po; format: ADME, organism-based; design: dose 50 mg/kg, route oral; details: in vivo
[38] = Oral bioavailability in mouse at 25 mg/kg; format: ADME, organism-based; details: in vivo
[39] = AUC (0 to 24 hrs) in mouse at 25 mg/kg, po; format: ADME, organism-based; design: time < 24 hr, dose 25 mg/kg, route oral; details: plasma
[40] = Cmax in mouse at 25 mg/kg, po; format: ADME, organism-based; design: dose 25 mg/kg, route oral; details: in vivo
[41] = Tmax in mouse at 25 mg/kg, po; format: ADME, organism-based; design: dose 25 mg/kg, route oral; details: in vivo
[42] = Volume of distribution at steady state in monkey at 1 mg/kg, iv; format: ADME, organism-based, Macaca mulatta; design: dose 1 mg/kg, route intravenous; details: rhesus monkey, in vivo, read-out: Vdss
[43] = Terminal half life in monkey at 1 mg/kg, iv; format: ADME, organism-based, Macaca mulatta; design: dose 1 mg/kg, route intravenous; details: rhesus monkey, in vivo, read-out: beta t1/2 (converted)
[44] = Total clearance in monkey at 1 mg/kg, iv; format: ADME, organism-based, Macaca mulatta; design: dose 1 mg/kg, route intravenous; details: rhesus monkey, in vivo
[45] = Volume of distribution at steady state in rat at 5 mg/kg, iv; format: ADME, organism-based; design: dose 5 mg/kg, route intravenous; details: in vivo, read-out: Vdss
[46] = Terminal half life in rat at 5 mg/kg, iv; format: ADME, organism-based; design: dose 5 mg/kg, route intravenous; details: in vivo, read-out: beta t1/2 (converted)
[47] = Total clearance in rat at 5 mg/kg, iv; format: ADME, organism-based; design: dose 5 mg/kg, route intravenous; details: in vivo
[48] = Volume of distribution at steady state in mouse at 5 mg/kg, iv; format: ADME, organism-based; design: dose 5 mg/kg, route intravenous; details: in vivo, read-out: Vdss
[49] = system: 22Rv1 (Homo sapiens); test: Antitumor activity against human 22Rv1 cells xenografted in mouse assessed as tumor growth inhibition at 25 to 50 mg/kg, po qd up to 32 days; details: dose mg/kg 25-50

Sequence of Cyclin-dependent kinase 4 (P11802 whole entry): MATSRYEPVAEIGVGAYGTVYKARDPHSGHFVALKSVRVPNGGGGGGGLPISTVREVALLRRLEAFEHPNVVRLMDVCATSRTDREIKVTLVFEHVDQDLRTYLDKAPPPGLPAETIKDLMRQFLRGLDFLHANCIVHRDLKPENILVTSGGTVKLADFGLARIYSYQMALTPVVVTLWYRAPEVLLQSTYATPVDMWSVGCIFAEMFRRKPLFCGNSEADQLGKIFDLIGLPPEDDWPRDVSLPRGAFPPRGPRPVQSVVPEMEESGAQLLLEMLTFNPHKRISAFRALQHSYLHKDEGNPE

## Cc1[nH]nc2c1N=C(c1ccccc1Cl)c1cc(N)ccc1N2
[1]
  pIC50: 6.52
[2]
  pIC50: 7.30
[3]
  pIC50: 7.06
[4]
  pIC50: 7.47

## COc1cc2c(cc1F)C(c1ccccc1Cl)=Nc1c(n[nH]c1C)N2 [RG-1530]
[5]
  half-life: 4.32 h
[6]
  clearance: 8.8 mL/min/kg
[7]
  pIC50: 6.16
[8]
  pIC50: 6.70
[9]
  pIC50: 6.70
[10]
  pIC50: 6.70
[11]
  pIC50: 6.70
[12]
  pIC50: 6.70
[13]
  pIC50: 6.70
[14]
  pIC50: 7.24
[2]
  pIC50: 7.55
[15]
  pIC50: 7.31
[16]
  pIC50: 6.93
[17]
  Survival: >=25%
[18]
  Survival: >=25%
[19]
  Survival: >=25%
[20]
  Survival: >=25%
[21]
  Activity: Non-toxic
[22]
  Activity: Non-toxic
[23]
  Activity: Non-toxic
[24]
  Activity: Non-toxic
[25]
  TGI: inactive
[26]
  TGI: inactive
[27]
  Activity: Active
[28]
  Activity: Active
[29]
  TGI: Active
[30]
  bioavailability: 22.1%
[31]
  Cmax: 406 ng/mL
[32]
  AUC(0-t) at 24 h: 4820 ng·h/mL
[33]
  Tmax: 4 h
[34]
  bioavailability: 88.7%
[35]
  Cmax: 5360 ng/mL
[36]
  AUC(0-t) at 24 h: 86300 ng·h/mL
[37]
  Tmax: 4 h
[38]
  bioavailability: 96.9%
[39]
  AUC(0-t) at 24 h: 46700 ng·h/mL
[40]
  Cmax: 5070 ng/mL
[41]
  Tmax: 2 h
[42]
  Vd: 1.59 L/kg
[43]
  half-life: 3.83 h
[44]
  clearance: 7.82 mL/min/kg
[45]
  Vd: 3.22 L/kg
[46]
  half-life: 4.7 h
[47]
  clearance: 8.78 mL/min/kg
[48]
  Vd: 3.12 L/kg
[49]
  TGI: 98%
